{"source": "patent US10683506B2", "about": "“CD117 ligand-drug conjugates for targeted cancer therapy” (THE METHODIST HOSPITAL SYSTEM, priority 2015, dated 2020)", "assay_type_in_all_cases": "cell-based", "key": {"[1]": {"tested_on": "CD117-negative control cells (U937)", "assay": "Cell growth inhibition by MTT assay", "method": "(§1) Cell growth inhibition was monitored by MTT (MTT (3-[4,5-dimethylthiazol-2-yl]-2,5-diphenyltetrazolium bromide) assay post treatment. Cells (5000) were treated by CD117 Apt-MTX or equal molar free MTX in RPMI 1640 medium for 2 h. After replacement with fresh medium containing 10% serum, cells were cultured for an additional 48 hours and then 10 μl of MTT solution (5 mg/mL in PBS) were added to each well. After a further 4 h of incubation, the culture medium was removed and the formazan crystals in the cells were solubilized with 100 μl of DMSO for 15 minutes. The UV absorbance at 570 nm was measured with a microplate reader."}, "AML cells (HEL)": {"tested_on": "AML cells (HEL)", "assay": "Cell growth inhibition by MTT assay", "method": "as §1"}, "[2]": {"tested_on": "CD117-negative control cells (U937)", "assay": "Apoptosis assay, Annexin V staining, flow cytometry", "settings": "10 nM MTX payload or equal molar", "method": "(§2) Treated cells also were investigated by apoptosis assay. Annexin V-APC staining (BD Biosciences, San Jose, Calif.) was performed according to the manufacturer's instructions. The cell samples were analyzed using a FACS caliber (BD Biociences, San Jose, Calif., USA) flow cytometry equipped with cellquest software."}, "HEL cells": {"tested_on": "HEL cells", "assay": "Apoptosis assay, Annexin V staining, flow cytometry", "settings": "10 nM MTX payload or equal molar", "method": "as §2"}}, "data": [{"smiles": "CN(Cc1cnc2nc(N)nc(N)c2n1)c1ccc(C(=O)N[C@@H](CCC(=O)O)C(=O)O)cc1", "note": "[free MTX, Methotrexate]", "values": [{"measurement": "effect on cell proliferation (in words)", "setting": "[1]; U937, 10 nM MTX, treated 2 hours, cultured 48 hr", "result": "minimal effect on both cells"}, {"measurement": "inhibition", "setting": "[1]; U937, 100 nM final concentration", "result": "about 30%"}, {"measurement": "inhibition", "setting": "AML cells (HEL); 100 nM final concentration", "result": "about 30%"}, {"measurement": "effect on cell proliferation (in words)", "setting": "AML cells (HEL); equal molar (10 nM MTX), treated 2 hours, cultured 48 hr", "result": "minimal effect on both cells"}, {"measurement": "cell apoptosis / toxicity", "setting": "[2]", "result": "minimal effect on both HEL and control cells"}, {"measurement": "cell apoptosis", "setting": "HEL cells", "result": "minimal effect on both HEL and control cells"}]}]}
